Data published in patent US9765074B2, “Inhibitors of the renal outer medullary potassium channel” (Merck Sharp & Dohme Corp., priority 2013, dated 2017).

The compounds below were run against T1, hROMK (hKir1.1) (Homo sapiens, UniProt P48048) (assay: Thallium Flux Assay (ROMK channel functional thallium flux, FLIPR-Tetra)). Conditions: HEK293 cells stably expressing hROMK (hKir1.1); 30 min compound incubation.
T1 construct: expressed in transfected cells
T1 sequence (P48048 1-391): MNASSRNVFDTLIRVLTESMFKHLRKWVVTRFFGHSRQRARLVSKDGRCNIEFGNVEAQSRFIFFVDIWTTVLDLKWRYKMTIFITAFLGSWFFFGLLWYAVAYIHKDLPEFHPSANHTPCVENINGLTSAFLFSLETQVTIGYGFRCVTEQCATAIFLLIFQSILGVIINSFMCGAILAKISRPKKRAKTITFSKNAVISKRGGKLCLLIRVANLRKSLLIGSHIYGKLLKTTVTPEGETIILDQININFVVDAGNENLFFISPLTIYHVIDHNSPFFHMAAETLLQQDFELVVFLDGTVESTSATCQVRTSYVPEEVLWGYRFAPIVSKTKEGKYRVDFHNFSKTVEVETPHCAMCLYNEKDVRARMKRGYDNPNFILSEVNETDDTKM
Assay type: cell-based
Outline: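 HEK293 cells stably expressing hKir1.1, loaded with FluxOR dye for 90 min, then preincubated with compound for 30 min at ambient temperature with 0.3 mM ouabain and probenecid. Stimulated with 3 mM thallium/0.3 mM potassium (final); fluorescence read ~10 min. Normalized to 3 μM reference ROMK inhibitor; IC50 from inhibition of flux.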

| Compound | IC50 [nM] |
| --- | --- |
| CC1=C(N2CCC3(CC4CCC(C3)N4C[C@@H](O)c3ccc(-n4cnnn4)cn3)C2=O)COC1=O (stereo partly drawn) [Example 46, (1R,5R)-8-{(2R)-2-hydroxy-2-[5-(1H-tetrazol-1-yl)pyridin-2-yl]ethyl}-1′-(4-methyl-5-oxo-2,5-dihydrofuran-3-yl)-2′-oxospiro[8-azoniabicyclo[3.2.1]octane-3,3′-pyrrolidine]] | 20 |
| CC1=C(N2CCC3(CC4CCC(C3)N4C[C@H](O)c3ccc(-n4cnnn4)cn3)C2=O)COC1=O (stereo partly drawn) [Example 47, (1R,5R)-8-{(2S)-2-hydroxy-2-[5-(1H-tetrazol-1-yl)pyridin-2-yl]ethyl}-1′-(4-methyl-5-oxo-2,5-dihydrofuran-3-yl)-2′-oxospiro[8-azoniabicyclo[3.2.1]octane-3,3′-pyrrolidine]] | 20 |
| CC1=C(N2CCC3(CC4CCC(C3)N4C[C@H](O)c3cnc(-n4cnnn4)cn3)C2=O)COC1=O (stereo partly drawn) [Example 48, (1R,5R)-8-{(2S)-2-hydroxy-2-[5-(1H-tetrazol-1-yl)pyrazin-2-yl]ethyl}-1′-(4-methyl-5-oxo-2,5-dihydrofuran-3-yl)-2′-oxospiro[8-azoniabicyclo[3.2.1]octane-3,3′-pyrrolidine]] | 30 |
| CC1=C(N2CCC3(CC4CCC(C3)N4C[C@@H](O)c3cnc(-n4cnnn4)cn3)C2=O)COC1=O (stereo partly drawn) [Example 49, (1R,5R)-8-{(2R)-2-hydroxy-2-[5-(1H-tetrazol-1-yl)pyrazin-2-yl]ethyl}-1′-(4-methyl-5-oxo-2,5-dihydrofuran-3-yl)-2′-oxospiro[8-azoniabicyclo[3.2.1]octane-3,3′-pyrrolidine]] | 90 |
| CC1=C(N2CCC3(CC4CCC(C3)N4C[C@H](O)c3nnc(-n4cnnn4)c(C)c3C)C2=O)COC1=O (stereo partly drawn) [Example 50, (1R,5R)-8-{(2S)-2-[4,5-dimethyl-6-(1H-tetrazol-1-yl)pyridazin-3-yl]-2-hydroxyethyl}-1′-(4-methyl-5-oxo-2,5-dihydrofuran-3-yl)-2′-oxospiro[8-azoniabicyclo[3.2.1]octane-3,3′-pyrrolidine]] | 20 |
| CC1=C(N2CCC3(CC4CCC(C3)N4C[C@@H](O)c3nnc(-n4cnnn4)c(C)c3C)C2=O)COC1=O (stereo partly drawn) [Example 51, (1R,5R)-8-{(2R)-2-[4,5-dimethyl-6-(1H-tetrazol-1-yl)pyridazin-3-yl]-2-hydroxyethyl}-1′-(4-methyl-5-oxo-2,5-dihydrofuran-3-yl)-2′-oxospiro[8-azoniabicyclo[3.2.1]octane-3,3′-pyrrolidine]] | 30 |
| CC1=C(N2CCC3(CC4CCC(C3)N4C[C@H](O)c3ccc(-n4cnnn4)nn3)C2=O)COC1=O (stereo partly drawn) [Example 52, (1R,5R)-8-{(2S)-2-hydroxy-2-[6-(1H-tetrazol-1-yl)pyridazin-3-yl]ethyl}-1′-(4-methyl-5-oxo-2,5-dihydrofuran-3-yl)-2′-oxospiro[8-azoniabicyclo[3.2.1]octane-3,3′-pyrrolidine]] | 10 |
| CC1=C(N2CCC3(CC4CCC(C3)N4C[C@@H](O)c3ccc(-n4cnnn4)nn3)C2=O)COC1=O (stereo partly drawn) [Example 53, (1R,5R)-8-{(2R)-2-hydroxy-2-[6-(1H-tetrazol-1-yl)pyridazin-3-yl]ethyl}-1′-(4-methyl-5-oxo-2,5-dihydrofuran-3-yl)-2′-oxospiro[8-azoniabicyclo[3.2.1]octane-3,3′-pyrrolidine]] | 10 |
| CC1=C(N2CCC3(CC4CCC(C3)N4C[C@@H](O)c3cc(C)c(-n4cnnn4)nn3)C2=O)COC1=O (stereo partly drawn) [Example 54, (1R,5R)-8-{(2R)-2-hydroxy-2-[5-methyl-6-(1H-tetrazol-1-yl)pyridazin-3-yl]ethyl}-1′-(4-methyl-5-oxo-2,5-dihydrofuran-3-yl)-2′-oxospiro[8-azoniabicyclo[3.2.1]octane-3,3′-pyrrolidine]] | 20 |
| CC1=C(N2CCC3(CC4CCC(C3)N4C[C@H](O)c3cc(C)c(-n4cnnn4)nn3)C2=O)COC1=O (stereo partly drawn) [Example 55, (1R,5R)-8-{(2S)-2-hydroxy-2-[5-methyl-6-(1H-tetrazol-1-yl)pyridazin-3-yl]ethyl}-1′-(4-methyl-5-oxo-2,5-dihydrofuran-3-yl)-2′-oxospiro[8-azoniabicyclo[3.2.1]octane-3,3′-pyrrolidine]] | 50 |
| CC1=C(N2CCC3(CCN(C[C@@H](O)c4cccc(-n5cnnn5)c4)CC3)C2=O)COC1=O [Example 62, 8-{(2S)-2-hydroxy-2-[3-(1H-tetrazol-1-yl)phenyl]ethyl}-2-(4-methyl-5-oxo-2,5-dihydrofuran-3-yl)-1-oxo-2-aza-8-azoniaspiro[4.5]decane] | 40 |
| CC1=C(N2CCC3(CCN(C[C@H](O)c4nnc(-n5cnnn5)c(C)c4C)CC3)C2=O)COC1=O [Example 69, 8-{(2S)-2-[4,5-dimethyl-6-(1H-tetrazol-1-yl)pyridazin-3-yl]-2-hydroxyethyl}-2-(4-methyl-5-oxo-2,5-dihydrofuran-3-yl)-1-oxo-2-aza-8-azoniaspiro[4.5]decane] | 40 |
| CC1=C(N2CCC3(CCN(C[C@@H](O)c4nnc(-n5cnnn5)c(C)c4C)CC3)C2=O)COC1=O [Example 70, 8-{(2R)-2-[4,5-dimethyl-6-(1H-tetrazol-1-yl)pyridazin-3-yl]-2-hydroxyethyl}-2-(4-methyl-5-oxo-2,5-dihydrofuran-3-yl)-1-oxo-2-aza-8-azoniaspiro[4.5]decane] | 30 |
| CC1=C(N2CCC3(CCN(C[C@H](O)c4cccc(-n5cnnn5)n4)CC3)C2=O)COC1=O [Example 73, 8-{(2S)-2-hydroxy-2-[6-(1H-tetrazol-1-yl)pyridin-2-yl]ethyl}-2-(4-methyl-5-oxo-2,5-dihydrofuran-3-yl)-1-oxo-2-aza-8-azoniaspiro[4.5]decane] | 170 |
| CC1=C(N2CCC3(CCN(C[C@H](O)c4c(F)cc(-n5cnnn5)cc4F)CC3)C2=O)COC1=O [Example 76, 8-{(2R)-2-[2,6-difluoro-4-(1H-tetrazol-1-yl)phenyl]-2-hydroxyethyl}-2-(4-methyl-5-oxo-2,5-dihydrofuran-3-yl)-1-oxo-2-aza-8-azoniaspiro[4.5]decane] | 20 |
| C[C@@H]1CC2(CCN(C[C@H](O)c3cnc(-n4cnnn4)cn3)CC2)C(=O)N1C1=CC(=O)OC1 [Example 79, (3R)-8-{(2S)-2-hydroxy-2-[5-(1H-tetrazol-1-yl)pyrazin-2-yl]ethyl}-3-methyl-1-oxo-2-(5-oxo-2,5-dihydrofuran-3-yl)-2-aza-8-azoniaspiro[4.5]decane] | 100 |

Results, then the compound that gave them:

| IC50 [nM] | Compound |
| --- | --- |
| 40 | Cc1nc(-n2cnnn2)ccc1[C@@H](O)CN1CCC2(CC1)CCN(C1=C(C3CC3)C(=O)OC1)C2=O [Example 60, 2-(4-cyclopropyl-5-oxo-2,5-dihydrofuran-3-yl)-8-{(2R)-2-hydroxy-2-[2-methyl-6-(1H-tetrazol-1-yl)pyridin-3-yl]ethyl}-1-oxo-2-aza-8-azoniaspiro[4.5]decane] |
| 70 | CC1=C(N2CCC3(CCN(C[C@H](O)c4cccc(-n5cnnn5)c4)CC3)C2=O)COC1=O [Example 61, 8-{(2R)-2-hydroxy-2-[3-(1H-tetrazol-1-yl)phenyl]ethyl}-2-(4-methyl-5-oxo-2,5-dihydrofuran-3-yl)-1-oxo-2-aza-8-azoniaspiro[4.5]decane] |
| 70 | CC1=C(N2CCC3(CCN(C[C@@H](O)c4cc(-n5cnnn5)ccn4)CC3)C2=O)COC1=O [Example 71, 8-{(2R)-2-hydroxy-2-[4-(1H-tetrazol-1-yl)pyridin-2-yl]ethyl}-2-(4-methyl-5-oxo-2,5-dihydrofuran-3-yl)-1-oxo-2-aza-8-azoniaspiro[4.5]decane] |
| 40 | CC1=C(N2CCC3(CCN(C[C@H](O)c4cc(-n5cnnn5)ccn4)CC3)C2=O)COC1=O [Example 72, 8-{(2S)-2-hydroxy-2-[4-(1H-tetrazol-1-yl)pyridin-2-yl]ethyl}-2-(4-methyl-5-oxo-2,5-dihydrofuran-3-yl)-1-oxo-2-aza-8-azoniaspiro[4.5]decane] |
| 90 | CC1=C(N2CCC3(CCN(C[C@@H](O)c4cccc(-n5cnnn5)n4)CC3)C2=O)COC1=O [Example 74, 8-{(2R)-2-hydroxy-2-[6-(1H-tetrazol-1-yl)pyridin-2-yl]ethyl}-2-(4-methyl-5-oxo-2,5-dihydrofuran-3-yl)-1-oxo-2-aza-8-azoniaspiro[4.5]decane] |
| 440 | CC1=C(N2CCC3(CCN(C[C@H](O)c4cncc(-n5cnnn5)n4)CC3)C2=O)COC1=O [Example 75, 8-{(2S)-2-hydroxy-2-[6-(1H-tetrazol-1-yl)pyrazin-2-yl]ethyl}-2-(4-methyl-5-oxo-2,5-dihydrofuran-3-yl)-1-oxo-2-aza-8-azoniaspiro[4.5]decane] |
| 10 | C[C@H]1CC2(CCN(C[C@H](O)c3cnc(-n4cnnn4)cn3)CC2)C(=O)N1C1=CC(=O)OC1 [Example 77, (3S)-8-{(2S)-2-hydroxy-2-[5-(1H-tetrazol-1-yl)pyrazin-2-yl]ethyl}-3-methyl-1-oxo-2-(5-oxo-2,5-dihydrofuran-3-yl)-2-aza-8-azoniaspiro[4.5]decane] |
| 10 | C[C@H]1CC2(CCN(C[C@@H](O)c3cnc(-n4cnnn4)cn3)CC2)C(=O)N1C1=CC(=O)OC1 [Example 78, (3S)-8-{(2R)-2-hydroxy-2-[5-(1H-tetrazol-1-yl)pyrazin-2-yl]ethyl}-3-methyl-1-oxo-2-(5-oxo-2,5-dihydrofuran-3-yl)-2-aza-8-azoniaspiro[4.5]decane] |
| 130 | C[C@@H]1CC2(CCN(C[C@@H](O)c3cnc(-n4cnnn4)cn3)CC2)C(=O)N1C1=CC(=O)OC1 [Example 80, (3R)-8-{(2R)-2-hydroxy-2-[5-(1H-tetrazol-1-yl)pyrazin-2-yl]ethyl}-3-methyl-1-oxo-2-(5-oxo-2,5-dihydrofuran-3-yl)-2-aza-8-azoniaspiro[4.5]decane] |
